Laboratory results published in patent publication US20230021669A1, “TRICYCLIC COMPOUND, AND PREPARATION METHOD THEREFOR AND MEDICAL USE THEREOF” (The National Institutes of Pharmaceutical R&D Co., Ltd., priority 2019, published 2023).

Experiments:
[1] = Determination of aldehyde capture rate (nonenal as model aldehyde, HPLC quantification); conditions: for Capture rate (slope of the capture curve per unit time): higher absolute value of the slope = higher capture rate; for Aldehyde consumption (100%): nonenal 0.025 mM, compound 0.05 mM, room temperature
Procedure: In the aldehyde capture test disclosed in the present invention, the stable lipid metabolite, nonenal, was used as the model aldehyde to react with the compound of the Example. The specific protocol was as follows.
0.05 mM of the compounds of the Examples of the present invention were precisely weighed respectively and dissolved in 1.2 mL of a mixed solution (v/v=1:1) of triolein (Aladdin, G105172-5g) and linoleic acid (Aladdin, L100442-25g), respectively. 2.5 mL of PBS (Solarbio) solution containing 20% Captisol® (Aladdin, C125030-25g) was added, and the solution was stirred at room temperature overnight. After the example compound was completely dissolved, 0.025 mM nonenal (Sigma, 255653-5G) was added, and the solution was stirred vigorously at room temperature. 200 μL of the sample was added to 800 μL of acetonitrile (Fisher, A995) at 0, 45, 90, 180, 225 and 465 minutes, respectively. The solution was mixed vigorously by vortex for 2 minutes, and centrifuged at a low speed of 1000 r/min for 3 minutes. The supernatant was transferred to an injection vial. The nonenal in the reaction mixture was analyzed quantitatively by high performance liquid chromatography. The adduct resulted from the example compound of the present invention and nonenal was analyzed qualitatively by high performance liquid chromatography-mass spectrometry.
In the developed detection method, the retention time of the model aldehyde nonenal was 2.42 minutes.

[2] = system: noninfectious uveitis animal model (lewis rats); assay: Therapeutic effect in lipopolysaccharide-induced noninfectious uveitis animal model; assay type: in vivo, rat
Procedure: Female lewis rats were used as the research subjects. Lewis rats (Vital River) were randomly divided into groups (4 animals per group, a total of 8 eyes). The groups are as follows: normal control group, model control group, and example administration group. The inflammation model was established in these groups except for the normal control group.
(2) Formulation of drug solution: 10 mg of the compound of Example 4 of the present invention was weighed and dissolved in 1 mL of the vehicle stock solution, and the resulting solution was made up to 2 mL with water for injection. The content of each substance is as follows: Na2HPO4.12H2O 0.83%, NaH2PO4.2H2O 0.017%, ρ-cyclodextrin 9.5%, PEG-400 5.0%, active compound 0.5%.
The animal model was a noninfectious uveitis animal model established by intraperitoneal injection of lipopolysaccharide (derived from Escherichia coli, 055:B5, Sigma, L2880-100MG, injection dose: 2 mg/kg). At the same time of modeling, drug administration was carried out according to the above grouping situation. The normal control group was administered with normal saline, the model control group was administered with blank vehicle, and the example administration group was administered with the eye drops formulated above. The drug was administered by eye instillation to both eyes of each animal, and the eye instillation dose was 20 μL/eye. After the completion of eye instillation, the eyelids were closed for 20 seconds to prevent the loss of the drug. The administration was repeated at 3, 6 and 23 hours after modeling. […] The ocular inflammation of the animals in each group was examined with a slit lamp microscope (Jiangxi Jiangfeng, LYL-S), and evaluated according to the McDonald-Shadduck scoring system (GB/T 28538-2012).
The animals were sacrificed, and the bilateral eyeballs were enucleated. […] Quantitative analysis of total protein in aqueous humor was performed on the supernatant by a BCA protein quantification kit (Beyotime, P0010).

[3] = system: C48/80-induced allergic conjunctivitis (Wistar rats); assay: Therapeutic effect in C48/80-induced allergic conjunctivitis animal model; assay type: in vivo, rat; conditions: female Wistar rats, C48/80 on cornea; 10 μL per eye 10 minutes after stimulation; examined 20 minutes after administration
Source text: C48/80 is a polymer formed by the condensation of N-methyl-p-methoxyphenethylamine with formaldehyde, which acts directly on G protein and induces mast cell degranulation. After degranulation, the mast cell releases active substances such as histamine and kinin, which can cause acute type I allergic reactions such as telangiectasia and enhanced permeability. It can cause allergic conjunctivitis if applied topically to the ocular surface.
Female Wistar rats were used as the research subjects. Wistar rats (Vital River) were randomly divided into groups (5 animals per group, a total of 10 eyes). The groups are as follows: normal control group, model control group, positive drug group, and example administration group. The inflammation model was established in these groups except for the normal control group. Emedastine Difumarate Eye Drops (Emadine®, Alcon, H20181192) was used as the positive drug. Model establishment, administration and evaluation processes are as follows. […]
After 10 minutes of stimulation, different drug treatments were carried out according to the group settings. […] The clinical score was evaluated individually on the eyes of each animal according to the McDonald-Shadduck scoring system (GB/T 28538-2012).

SMILES	Capture rate (slope of the capture curve per unit time) ([1]; 225 minutes)	Aldehyde consumption (100%) ([1]; 225 minutes)	Capture rate (slope of the capture curve per unit time) ([1]; 465 minutes)	Aldehyde consumption (100%) ([1]; 465 minutes)	Protein concentration in aqueous humor ([2]; female lewis rats, LPS 2 mg/kg i.p., 0.5% eye drops 20 μL/eye at 0, 3, 6, 23 h, 24 hours after modeling, BCA, mean ± standard deviation)	Ocular score (McDonald-Shadduck scoring system) ([2]; female lewis rats, LPS 2 mg/kg i.p., 0.5% eye drops 20 μL/eye at 0, 3, 6, 23 h, 24 hours after modeling, mean ± standard deviation)	Therapeutic effect in the ocular inflammation animal model (score and aqueous humor protein, in words) ([2]; lewis rats, LPS-induced uveitis, eye drops)	Therapeutic effect on allergic conjunctivitis (McDonald-Shadduck clinical score, FIG. 2) [3]
CC(C)(O)c1cc2cc3c(cc2cc1N)OCO3 [Example 4, 2-(7-aminonaphtho[2,3-d][1,3]dioxol-6-yl)propan-2-ol]	−0.25	52.65%	−0.14	66.62%	840.6 ± 449.7 µg/mL	8.4 ± 2.8	showing a therapeutic effect	good therapeutic effect
CC(C)(O)c1cc2cc3c(cc2cc1N)OCCO3 [Example 6, 2-(8-amino-2,3-dihydronaphtho[2,3-b][1,4]dioxin-7-yl)propan-2-ol]	−0.07	16.48%	−0.05	22.01%	–	–	–	–
CC(C)(O)c1cc2cc3c(cc2cc1N)OCCOCCOCCO3 [Example 8, 2-(14-amino-2,3,5,6,8,9-hexahydronaphtho[2,3-b][1,4,7,10]tetraoxacyclododecin-13-yl) propan-2-ol]	−0.07	19.78%	−0.04	19.82%	–	–	–	–
CC(C)(O)c1nc2cc3c(cc2cc1N)OCO3 [Example 1, 2-(7-amino-[1,3]dioxolo[4,5-g]quinolin-6-yl)propan-2-ol]	−0.05	10.73%	−0.04	18.43%	–	–	–	–
Nc1cc2cc3c(cc2cc1C1(O)CC1)OCO3 [Example 9, 1-(7-aminonaphtho[2,3-d][1,3]dioxol-6-yl)cyclopropan-1-ol]	−0.06	15.43%	−0.03	16.60%	–	–	–	–
Cc1nc2cc3nc(C(C)(C)O)c(N)cc3cc2o1 [Example 2, 2-(7-amino-2-methyloxazolo[5,4-g]quinolin-6-yl)propan-2-ol]	−0.06	11.99%	−0.03	12.11%	–	–	–	–
CC(C)(O)c1nc2cc3nc(N4CCOCC4)oc3cc2cc1N [Example 3, 2-(7-amino-2-morpholinooxazolo[5,4-g]quinolin-6-yl)propan-2-ol]	−0.17	35.38%	−0.10	43.67%	–	–	–	–
CC(C)(O)c1nc2cc3oc(N4CCOCC4)nc3cc2cc1N [Example 7, 2-(7-amino-2-morpholinooxazolo[4,5-g]quinolin-6-yl)propan-2-ol]	−0.03	7.12%	−0.01	8.34%	–	–	–	–
Cn1cnc2cc3cc(N)c(C(C)(C)O)nc3cc21 [Example 5, 2-(7-amino-3-methyl-3H-imidazo[4,5-g]quinolin-6-yl)propan-2-ol]	−0.08	20.02%	−0.08	36.01%	–	–	–	–
